Laboratory results published in US8987473B2, “Ring-fused compound” (Sato Pharmaceutical Co., Ltd., priority 2011, dated 2015).

Molecular target: human URAT1 (Homo sapiens (Human), UniProt Q96S37)
Test: Test for uric acid transport inhibition using human URAT1 expression cell
Type: cell-based
Details: human URAT1 stable expression CHO cell; 14C-labeled uric acid 38 μM final concentration; incorporation at room temperature for 5 minutes; 100% window defined with benzbromarone 100 μM; read-out: URAT1 Inhibitory Activity (IC50)
Protocol: In this Example, it was evaluated whether the Example compound has the URAT1 inhibitory activity.
Human URAT1 full-length cDNA was introduced to an expression vector pcDNA5/FRT/V5-His TOPO (registered trademark) (Invitrogen Corporation). The obtained expression plasmid was introduced to Chinese hamster ovary cell (hereinafter referred to as the CHO cell) by the liposome method using Lipofectamine LTX (Invitrogen), and cultured in a selection medium including hygromycin, whereby to prepare human URAT1 stable expression cell.
The human URAT1 expression CHO cell was cultured using D-MEM/F-12 (1:1) mixed medium including 10% bovine fetal serum and hygromycin at 37° C. in the presence of 5% CO2. The cells were seeded onto a 96 well plate (Corning Incorporated) in 0.8×10^5 cells/well, and after 24 hours, the test for uric acid transport inhibition below was performed.
The medium was removed by aspiration, and then the cells were washed once with an assay buffer including 125 mM of sodium gluconate, 4.8 mM of potassium gluconate, 1.2 mM of potassium dihydrogen phosphate, 1.2 mM of magnesium sulfate, 1.3 mM of calcium gluconate and 5.6 mM of glucose. 50 μL assay buffer including the test compound in various concentrations was added, and further 50 μL assay buffer including a radioactive ligand (uric acid labeled with ^14C; 38 μM final concentration) was added, and incorporation reaction was performed at room temperature for 5 minutes. Immediately after completion of the reaction, the reaction mixture was washed twice with 100 μL ice-cold assay buffer, and 100 μL of 0.1 N sodium hydroxide was added. The reaction mixture was stirred to lyse the cells, and 4 mL Hionic-Fluor (Packard BioScience CO) was added, and then the radioactivity was measured with a liquid scintillation counter (Beckman Coulter, Inc. and Packard BioScience CO).
The radioactivity when each concentration of the test compound was added (uric acid incorporation activity, %) was calculated in which the difference of the radioactivity when the test compound was not added (DMSO added), and the radioactivity when a positive control compound, benzbromarone (known URAT1 inhibitor) was added in 100 μM, was taken as 100%, and the concentration of the test compound when the uric acid incorporation activity was inhibited to 50% (IC50) was obtained.

Chain of human URAT1 (Q96S37 whole entry): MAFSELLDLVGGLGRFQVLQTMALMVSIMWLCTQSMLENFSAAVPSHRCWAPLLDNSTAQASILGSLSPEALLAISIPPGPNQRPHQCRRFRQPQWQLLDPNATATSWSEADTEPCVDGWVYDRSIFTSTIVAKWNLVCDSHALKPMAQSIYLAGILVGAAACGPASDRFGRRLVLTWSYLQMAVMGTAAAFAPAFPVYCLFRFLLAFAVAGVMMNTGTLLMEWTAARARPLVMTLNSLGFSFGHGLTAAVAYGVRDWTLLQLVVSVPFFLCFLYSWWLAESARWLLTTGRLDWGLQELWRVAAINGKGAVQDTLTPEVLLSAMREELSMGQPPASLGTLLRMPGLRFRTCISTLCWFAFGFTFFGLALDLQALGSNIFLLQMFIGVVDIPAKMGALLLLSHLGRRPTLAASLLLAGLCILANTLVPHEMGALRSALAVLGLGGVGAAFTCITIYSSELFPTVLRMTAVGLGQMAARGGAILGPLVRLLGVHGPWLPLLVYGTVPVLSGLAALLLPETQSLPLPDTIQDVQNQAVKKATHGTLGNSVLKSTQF

SMILES | IC50 [µM]
Cc1nn(Cc2c(Cl)cccc2Cl)c2cc(CCC(=O)O)ccc12 [Example 122, 3-[1-(2,6-dichlorobenzyl)-3-methyl-1H-indazole-6-yl]propionic acid] | 0.01
Cc1nn(Cc2c(Cl)cccc2Cl)c2cc(Cc3n[nH]c(=S)o3)ccc12 [Example 137, 5-{[1-(2,6-dichlorobenzyl)-3-methyl-1H-indazole-6-yl]methyl}-1,3,4-oxadiazol-2(3H)-thione] | 0.01
Cc1cccc(Cl)c1Cn1nc(Cl)c2ncc(-c3nnn[nH]3)cc21 [Example 177, 3-chloro-1-(2-chloro-6-methylbenzyl)-6-(1H-tetrazole-5-yl)-1H-pyrazolo[4,3-b]pyridine] | 0.104
Cc1cn(Cc2ccccc2Cl)c2cc(CC(=O)O)ccc12 [Example 87, 2-[1-(2-chlorobenzyl)-3-methyl-1H-indole-6-yl]acetic acid] | 0.088
Cc1nn(Cc2c(Cl)cccc2Cl)c2cc(CC(=O)O)ccc12 [Example 97, 2-[1-(2,6-dichlorobenzyl)-3-methyl-1H-indazole-6-yl]acetic acid] | 0.018
Cc1nn(Cc2c(Cl)cccc2Cl)c2cc(CCCC(=O)O)ccc12 [Example 133, 4-[1-(2,6-dichlorobenzyl)-3-methyl-1H-indazole-6-yl]butyric acid] | 0.016
O=C(O)c1cnc2c(Cl)nn(Cc3c(Cl)cccc3Cl)c2c1 [Example 172, 3-chloro-1-(2,6-dichlorobenzyl)-1H-pyrazolo[4,3-b]pyridine-6-carboxylic acid] | 0.162
CCc1nn(Cc2c(Cl)cccc2Cl)c2cc(C(=O)O)ccc12 [Example 144, 1-(2,6-dichlorobenzyl)-3-ethyl-1H-indazole-6-carboxylic acid] | 0.042
Cc1nn(Cc2c(Cl)cccc2Cl)c2cc(C(=O)CCC(=O)O)ccc12 [Example 130, 4-[1-(2,6-dichlorobenzyl)-3-methyl-1H-indazole-6-yl]-4-oxobutyric acid] | 0.068
CCc1nn(Cc2c(C)cccc2C)c2cc(CC(=O)O)ccc12 [Example 142, 2-[1-(2,6-dimethylbenzyl)-3-ethyl-1H-indazole-6-yl]acetic acid] | 0.05
Cc1cccc(C)c1Cn1nc(Cl)c2ccc(C(=O)O)cc21 [Example 149, 3-chloro-1-(2,6-dimethylbenzyl)-1H-indazole-6-carboxylic acid] | 0.053
Cc1nn(Cc2cccc(Cl)c2Cl)c2cc(-c3nnn[nH]3)cnc12 [Example 158, 1-(2,3-dichlorobenzyl)-3-methyl-6-(1H-tetrazole-5-yl)-1H-pyrazolo[4,3-b]pyridine] | 0.292
Cc1cccc(C)c1Cn1cc(C(C)C)c2ccc(C(=O)O)cc21 [Example 92, 1-(2,6-dimethylbenzyl)-3-isopropyl-1H-indole-6-carboxylic acid] | 0.071
CCc1nn(Cc2c(Cl)cccc2Cl)c2cc(/C=C/C(=O)O)ccc12 [Example 146, (E)-3-[1-(2,6-dichlorobenzyl)-3-ethyl-1H-indazole-6-yl]acrylic acid] | 0.053
Cc1nn(Cc2c(Cl)cccc2C#N)c2cc(CCC(=O)O)ccc12 [Example 125, 3-[1-(2-chloro-6-cyanobenzyl)-3-methyl-1H-indazole-6-yl]propionic acid] | 0.072
CCc1nn(Cc2c(Cl)cccc2Cl)c2cc(CC(=O)O)ccc12 [Example 140, 2-[1-(2,6-dichlorobenzyl)-3-ethyl-1H-indazole-6-yl]acetic acid] | 0.024

Continued, values first:

IC50 [µM] | SMILES
0.091 | Cc1cccc(C)c1Cn1nc(C)c2ccc(C(=O)O)cc21 [Example 117, 1-(2,6-dimethylbenzyl)-3-methyl-1H-indazole-6-carboxylic acid]
0.015 | Cc1cn(Cc2c(Cl)cccc2Cl)c2cc(CC(=O)O)ccc12 [Example 82, 2-[1-(2,6-dichlorobenzyl)-3-methyl-1H-indole-6-yl]acetic acid]
0.361 | Cc1nn(Cc2c(Cl)cccc2Cl)c2cc(C(=O)O)cnc12 [Example 153, 1-(2,6-dichlorobenzyl)-3-methyl-1H-pyrazolo[4,3-b]pyridine-6-carboxylic acid]
0.063 | Cc1ccc(C)c(Cn2cc(C)c3ccc(CC(=O)O)cc32)c1 [Example 85, 2-[1-(2,5-dimethylbenzyl)-3-methyl-1H-indole-6-yl]acetic acid]
0.091 | Cc1nn(Cc2cccc(Cl)c2Cl)c2cc(C(=O)O)ccc12 [Example 120, 1-(2,3-dichlorobenzyl)-3-methyl-1H-indazole-6-carboxylic acid]
0.067 | Cc1cccc(C)c1Cn1nc(C)c2ccc(CC(=O)O)cc21 [Example 66, 2-[1-(2,6-dimethylbenzyl)-3-methyl-1H-indazole-6-yl]acetic acid]
0.077 | Cc1nn(Cc2cccc3ccccc23)c2cc(CC(=O)O)ccc12 [Example 107, 2-[3-methyl-1-(naphthalene-1-ylmethyl)-1H-indazole-6-yl]acetic acid]
0.034 | Cc1nn(Cc2c(Cl)cccc2Cl)c2cc(Cc3n[nH]c(=O)o3)ccc12 [Example 136, 5-{[1-(2,6-dichlorobenzyl)-3-methyl-1H-indazole-6-yl]methyl}-1,3,4-oxadiazol-2(3H)-one]
0.08 | CCc1nn(Cc2c(C)cccc2Cl)c2cc(C(=O)O)cnc12 [Example 170, 1-(2-chloro-6-methylbenzyl)-3-ethyl-1H-pyrazolo[4,3-b]pyridine-6-carboxylic acid]
0.022 | Cc1cccc(C)c1Cn1cc(C)c2ccc(CC(=O)O)cc21 [Example 64, 2-[1-(2,6-dimethylbenzyl)-3-methyl-1H-indole-6-yl]acetic acid]
0.076 | Cc1cccc(C)c1Cn1nc(C(C)C)c2ccc(CC(=O)O)cc21 [Example 147, 2-[1-(2,6-dimethylbenzyl)-3-isopropyl-1H-indazole-6-yl]acetic acid]
0.052 | CCc1nn(Cc2c(Cl)cccc2Cl)c2cc(-c3nnn[nH]3)cnc12 [Example 171, 1-(2,6-dichlorobenzyl)-3-ethyl-6-(1H-tetrazole-5-yl)-1H-pyrazolo[4,3-b]pyridine]
0.018 | Cc1cccc(C)c1CN1CC(C)(C)c2ccc(CC(=O)O)cc21 [Example 80, 2-[1-(2,6-dimethylbenzyl)-2,3-dihydro-3,3-dimethyl-1H-indole-6-yl]acetic acid]
0.049 | O=C(O)Cc1ccc2c(C3CC3)nn(Cc3c(Cl)cccc3Cl)c2c1 [Example 148, 2-[3-cyclopropyl-1-(2,6-dichlorobenzyl)-1H-indazole-6-yl]acetic acid]
0.065 | Cc1nn(Cc2c(Cl)cccc2Cl)c2cc(C(=O)O)ccc12 [Example 119, 1-(2,6-dichlorobenzyl)-3-methyl-1H-indazole-6-carboxylic acid]
0.148 | Cc1cccc(Cl)c1Cn1nc(Cl)c2ncc(C(=O)O)cc21 [Example 174, 3-chloro-1-(2-chloro-6-methylbenzyl)-1H-pyrazolo[4,3-b]pyridine-6-carboxylic acid]
0.101 | Cc1nn(Cc2c(F)cccc2Cl)c2cc(CC(=O)O)ccc12 [Example 104, 2-[1-(2-chloro-6-fluorobenzyl)-3-methyl-1H-indazole-6-yl]acetic acid]
0.653 | Cc1nn(Cc2c(Cl)cccc2Cl)c2cc(CS(=O)(=O)O)ccc12 [Example 139, [1-(2,6-dichlorobenzyl)-3-methyl-1H-indazole-6-yl]methanesulfonic acid]
